{
  "source": "patent US12691234B2",
  "about": "“Methods employing gaseous nitric oxide for inhibiting tumor growth” (Beyond Air, Inc., priority 2019, dated 2026)",
  "key": {"CT-26 tumor": {"tested_on": "CT-26 tumor", "experiment": "Local gNO administration to CT26 tumor-bearing mice, primary tumor", "assay_type": "in vivo, Balb/c mouse", "procedure": "Test article treatment: Mice were first anesthetized by an intraperitoneal (i.p) injection of 100 mg/kg ketamine and 20 mg/kg xylazine hydrochloride solution. After 10 minutes, tumor-bearing mice were treated with the indicated dose of gNO.\nIn all protocols, the gas was delivered from NO in N2 cylinders. The outlet pressure was set to 2-3.5 bar using a pressure regulator that was connected directly to the cylinder.\nIn protocols that involve administration by needle injection, a silicone hose was connected directly to the pressure regulator on one end and to a manual or digital MFC on the other end. The flow was adjusted to 0.05 LPM-0.25 LPM. An additional silicone hose was connected to the flow controller as well as to a 23 G hypodermic needle. The needle was inserted horizontally into the center of each tumor.\nMice were inoculated subcutaneously with 5×10^5 CT-26 cells suspended in 100 μL Hank's Balanced Salt Solution (HBSS) into the low lateral side of the back. Local tumor growth was determined by measuring two mutually orthogonal tumor diameters with a caliper. The volume of the tumor was calculated using the formula: Vol=D1×D2×D2/2, where D1, D2 are two mutually orthogonal tumor diameters.\nAir-1 is a female Balb/c mouse that was treated twice. On day 0 the tumor volume was 64.85 mm^3. […] This was followed by air administration for 4 minutes administered to the outer layer of the tumorusing a cap, such as shown in FIG. 11C.\nNO-1 is a female Balb/c mouse and was treated once. […] Then, the skin was removed from the tumor, and the tumor was re-exposed to gNO via a perforated flask filled with gNO using the same parameters.\nNO-2 is a male Balb/c mouse and was treated 3 times. On day 0 the tumor volume was 38.51 mm^3. Day 0—gNO at 50,000 ppm was administered for 3.8 minutes at a flow rate of 0.9 using a cap. Day 5: gNO at 10,000 ppm was administered for 30 minutes using a cap. Then, gNO was delivered intra-tumorally by a 23 G needle such as shown in FIG. 11B at 0.3 LPM for another 10 minutes, using an intra-tumoral channel. The tip of the needle was directed at the outside area. Day 11: gNO at 10,000 ppm was delivered to the tumor for 5 minutes and at a flow rate of 0.3 LPM, using a 23 G needle and an intra-tumoral channel.\nIn an additional set of experiments, aluminum disposable gas cylinders were used. A flow meter was connected directly to the cylinder, to which a gas delivery tubing was connected. The tumor was inserted into a small flask trough a 1 cm hole and a plastic holder. A small hole at the bottom of the flask enabled to lower the pressure inside the flask. […]"}, "CT26 challenge tumor": {"tested_on": "CT26 challenge tumor", "experiment": "Challenge assay in CT26 tumor-bearing mice", "assay_type": "in vivo, mouse", "procedure": "Challenge tumor inoculation: Up to 21 days after gas treatment was applied to the primary tumor, the appropriate cancer cell suspensions were prepared as described herein and inoculation of cells was repeated on the contralateral flank of the mice. Administration was performed as soon as possible following cell suspension preparation and after manual shaking prior to withdrawal of the cell suspension.\nThe percentage of challenge tumor take was monitored 2-3 times a week by taking a look at the inoculated site and touching this area to look for small tumors that are not yet visible. Naïve mice inoculated with tumor cells for the first time served as an internal control.\nMixing of cells was performed immediately before injection to minimize leukocyte interactions within the syringe. Mice were observed 2-3 times a week and tumor development was determined by caliper measurements of tumor dimensions as described herein. Splenocytes were extracted from a CT26 tumor-bearing mouse, which was previously treated with 25,000 ppm NO for two 15-minute courses. This mouse was re-inoculated with CT26 cancer cells 12 days post treatment. […] Tumor take of visible outgrowths was monitored 2 to 3 times per week by taking a look at the inoculated site and touching this area to look for small tumors that are not yet visible Naïve mice inoculated s.c. with 500,000 CT26 served as the control group. […]"}, "4T1 cells": {"tested_on": "4T1 cells", "experiment": "Third inoculation with 4T1 breast cancer cells in CT26 gNO-immunized mouse", "assay_type": "in vivo, Balb/c mouse", "conditions": "mouse treated with 25,000 ppm NO twice 15 minutes; 4T1 inoculated 30 days post second inoculation", "procedure": "Balb/c mouse was inoculated with 500,000 CT26 cells to the right flank. CT26 tumor was treated with 25,000 ppm NO for 15 minutes at a flow rate of 0.25 LPM. Seven days post gas treatment, this mouse was treated once again using the same protocol. Twelve days post the first NO treatment, this mouse was re-inoculated with 500,000 CT26 cells to the left flank. A third inoculation of cancer cells was performed 30 days post the second cell inoculation, using mouse breast cancer cells, was performed as well and the growth of a third inoculation of breast cancer cells, 4T1 cells. Forty-four days post challenge assay start (second inoculation), this mouse was sacrificed, and his spleen was harvested and preserved in RPMI-based media at 4° c. until processing of it. The spleen was processed into a sterile 35 mm culture dish containing 5 ml of RPMI-based media. Any extra connective tissues or fat was trimmed from the spleen. The flat end of a plunger was used to mince the spleen by crushing the spleen to release the splenocytes. A 70 μm strainer was primed by passing 1 ml of PBS through it and placed on a sterile 50 mL conical tube. The pellet was collected and transferred through the strainer via a 5 mL serological pipette. The strainer was washed with 3 mL of RPMI-based media. Tube will be centrifuged at 300×g for 10 minutes. […]"}},
  "data": [
    {"molecule": "[N]=O", "note": "[gNO, nitric oxide]", "values": [
      {"measurement": "tumor in photographs after treatment", "setting": "CT-26 tumor; 10,000 ppm gNO in flask, 0.9 LPM, 20 minutes, up to 14 days post treatment", "result": "the tumor was destructed"},
      {"measurement": "mice cured", "setting": "CT-26 tumor; 25,000 ppm gNO intra-tumoral, 15 minutes, 0.25 LPM, repeated a week later, 44 days post the first treatment", "result": 50, "unit": "%"},
      {"measurement": "tumor 9 days after treatment", "setting": "CT-26 tumor; 200,000 ppm gNO for 2 seconds, 0.01 LPM", "result": "the tumor disappeared"},
      {"measurement": "size of air-treated tumor relative to gNO-treated tumors", "setting": "CT-26 tumor; mice NO-1 and NO-2, 10,000-50,000 ppm gNO, 12 days post treatment 1", "result": "more than times bigger"},
      {"measurement": "rejection of secondary CT26 tumor cell inoculation", "setting": "CT26 challenge tumor; 25,000 ppm 30 minutes, 50,000 ppm 10 minutes or 200,000 ppm 2-35 seconds, end of follow-up", "result": "all NO-treated mice rejected a secondary CT26 tumor cell inoculation"},
      {"measurement": "tumor development after CT26 re-inoculation", "setting": "CT26 challenge tumor; 25,000 ppm NO two 15-minute courses, re-inoculated 12 days post treatment, 44 days after challenge", "result": "no signs of tumor development were detected"},
      {"measurement": "growth of a third inoculation of breast cancer cells", "setting": "4T1 cells", "result": "inhibited"}
    ]}
  ]
}
